{
  "source": "patent US20090143419A1",
  "about": "“METHODS AND COMPOSITIONS FOR CONTROLLING ECTOPARASITES” (HATCHTECH PTY LTD, priority 2005, published 2009)",
  "key": {"[1]": {"system": "lice hatching proteases in the egg shell washings (ESW)", "assay": "Gelatine substrate SDS-PAGE of egg shell washings treated with protease inhibitors", "type": "biochemical, Pediculus humanus humanus", "settings": "10 mM inhibitor; 3 hrs at 37° C.", "description": "Within 12 hours of hatching 50 body lice eggs (Pediculus humanus humanus) were removed from the hair and placed in a 1 ml eppendorf tube. 20 μL of distilled water was added to the unhatched eggs and the preparation incubated for 30 minutes at 32° C. The 20 μL was recovered, freeze dried and stored at −70° C. A number of other samples were also collected as described. Hair samples from which unhatched lice eggs had been removed were also collected and incubated as described above. In addition, a sample of unhatched eggs and a sample of hair from which lice eggs had been removed were collected 7 days post laying (within 24 hrs of egg hatching). Both samples were washed in 10 mls of a 1% solution of sodium hypochlorite for 1 minute followed by a 5×1 minute washes in 25 mls in distilled water to remove the hypochlorite. These samples were then incubated in 20 μL of distilled water as described above. In addition, a group of 25 lice eggs that were within 24 hours of hatching, were pretreated with 1% sodium hypochlorite, washed as described above and left to hatch. Within 1-2 hours after hatching the empty egg shells were incubated in 20 μL of distilled water as described above, the washings collected from the hatched egg shells and stored at −70° C. All of the extract samples were then freeze-dried overnight. The freeze-dried samples were then resuspended in 15 μL of non-reducing SDS sample buffer, centrifuged at 10,000 g for 2 minutes and the entire 15 μL loaded on to 10% gelatine substrate SD S-PAGE gels. Gels were run at 4° C. for 10 minutes at 10 mA followed by a further 25 minutes at 15 mA per gel. They were then incubated for 2×20 minutes in a 2.5% Triton-X 100 solution followed by a three hour incubation in 0.1M Tris/HCl containing 1 mM CaCl2 pH 8.0. Activity was detected as clear areas on the gel the result of protease activity degrading the gelatine within the gel.\n10% SDS-PAGE gelatine substrate gels were loaded with freeze dried egg shell washings from 100 lice eggs that had been resuspended in 50 μl of non-reducing sample buffer with samples run at 10 μl per lane. Gels were run at 4° C. for 10 minutes at 10 mA per gel followed by a further 25 minutes at 15 mA per gel. Gels were then cut into strips and each strip incubated for 2×20 minutes in a 2.5% Triton-X 100 solution containing a specific inhibitor. The inhibitors used were the serine protease inhibitor PMSF (5 mM), the metalloprotease inhibitor 1,10-phenanthroline (10 mM), the aspartic protease Pepstatin (5 μM) and the cysteine inhibitor E-64 (10 μM). The gel strips were then incubated in 0.1M Tris/HCl containing 1 mM CaCl2 pH 8 containing the different protease inhibitors for 3 hrs at 37° C., before being stained in Coomassie blue and destained as previously described."}, "head lice eggs": {"system": "head lice eggs", "assay": "Assessment of commercial lice products in the standard lice egg-hatching assay", "type": "in vivo", "settings": "summary in words", "description": "These three products were tested according to manufacturer's recommendations. Groups of eggs (24 hr old) were treated with the different products according to manufacturer's recommendations for the appropriate period of time (5-10 minutes) followed by a rinse for 1-2 minutes in 32° C. water. A positive controls (10 mM 1,10-phenanthroline) and two negative controls (no treatment and 20% Methanol) were also incorporated. Post exposure to the different products, the eggs were rinsed with warm water at 32° C. before being blotted dry on tissue paper and placed at 32° C., 70% RH and left to hatch. A second group of eggs, (48 hr old) were treated as previously described and also left to hatch. This process was repeated at 24 hr intervals on head lice eggs up to 120 hr post laying. This method of assaying inhibitors more closely mirrors the field situation where lice eggs will be at various stages of development on the head and permits the inhibitory effects to be observed on these different stages of the parasite.\nThese two products were tested according to manufacturer's recommendations. Groups of eggs (24 hr old) were treated with the different products according to manufacturer's recommendations for the appropriate period of time (5-10 minutes) followed by a rinse for 1-2 minutes in 32° C. water. Two negative controls (no treatment and 20% ethanol) were also incorporated. […]"}, "[2]": {"system": "Plutella xylostella eggs (Waite strain)", "assay": "Egg hatching of Plutella xylostella", "settings": "Table 9; 10 mM; relative to control (100% MeOH)", "protocol": "The egg masses were then placed in a humid box at 25 degrees until egg hatch. Control eggs were exposed to absolute methanol as described above. At day 6 post laying the eggs were assessed from the different treatments and the percentage of egg hatch determined relative to the control as shown in Table 9.\nBatches of Plutella eggs that were laid on either fine cloth or parafilm were dipped in a specific inhibitor solution for between 2-10 seconds, the excess solution was drained by blotting with dry tissue paper. The egg masses were then placed in a humid box at 25 degrees until egg hatch. Control eggs were exposed to absolute methanol as described above or not treated. At day 6 post laying the eggs were assessed from the different treatments and the percentage of egg hatch determined relative to the controls as shown in Tables 10 and 11.\nBatches of Plutella eggs that were laid on fine cloth were dipped in a specific inhibitor solution for approximately 2 seconds, the excess solution was drained by blotting with dry tissue paper. The egg masses were then placed in a humid box at 25 degrees until egg hatch. Control eggs were exposed to absolute methanol as described above or not treated. At day 6 post laying the eggs were assessed from the different treatments and the percentage of egg hatch determined relative to the control as shown in Table 12.\nThe egg masses were then placed in a humid box at 25 degrees until egg hatch. Control eggs were exposed to absolute ethanol as described above. On day 6 post laying the eggs were assessed from the different treatments and the percentage of egg hatch determined relative to the control."}, "[3]": {"system": "Helicoverpa armigera eggs (Tatura×Toowoomba strains)", "assay": "Egg hatching of Helicoverpa armigera", "settings": "Table 14; 10 mM; relative to control", "protocol": "Several hundred Helicoverpa armigera eggs (Tatura×Toowoomba strains) were collected, that had been laid on fine mesh cloth over a 24 hour period.\nBatches of Helicoverpa eggs were exposed to a specific inhibitor solution for between 2-10 seconds the excess solution drained by blotting with dry tissue paper. The egg masses were then placed in a humid box at 25 degrees until egg hatch. Control eggs were exposed to absolute methanol as described above."}, "lice eggs": {"system": "lice eggs", "assay": "Lice egg-hatch bioassay, eggs treated five days post laying", "type": "in vivo, clothing lice (Pediculus humanus humanus)", "description": "To evaluate the potential effects of protease inhibitors on lice egg hatching it was necessary to develop a reliable in vitro bioassay. Male and female clothing lice were fed on a rabbit as previously described. […] During this period the female lice laid their eggs and attached them to the woven cloth. All lice would then be removed and the eggs permitted to incubate for the following 5 days. […] The eggs would then progress through to their final stages of development and hatch. In untreated control eggs a reliable average percentage hatch of between 85-95 percent was obtained using the in vitro egg hatch assay. […] Lice eggs were laid onto cloth as described above. […] Protease inhibitor solutions were typically prepared as stock solutions and added fresh at the appropriate concentration. Specifically stock solutions were prepared as follows: 1,10-phenanthroline (200 mM in methanol) and bestatin (5 mg/ml in methanol). In addition, the equivalent levels of the solvent were added to the non-inhibitor containing controls eggs to test for any buffer alone effects. Percentage hatch inhibition was calculated as the percentage reduction in egg hatch compared to the untreated control."}},
  "data": [
    {"smiles": "c1cnc2c(c1)ccc1cccnc12", "note": "[1,10-phenanthroline]", "values": [
      {"measurement": "protease activity of the ESW", "setting": "[1]", "value": "significant reduction in protease activity"},
      {"measurement": "ovicidal activity across the different stages of lice egg hatching", "setting": "head lice eggs", "value": "highly effective at inhibiting lice egg hatching"},
      {"measurement": "% Inhibition", "setting": "[2]", "value": "significantly inhibit egg hatching"},
      {"measurement": "% Inhibition", "setting": "[3]", "value": "able to inhibit egg hatching"},
      {"measurement": "egg hatching in lice", "setting": "lice eggs; 10 mM, eggs treated 5 days post laying", "value": "significantly inhibited egg hatching"},
      {"measurement": "inhibition of egg hatching", "setting": "lice eggs; added within 24 hours of hatching", "value": "variable inhibition"}
    ]}
  ]
}
